The text below walks through data of patent publication US20250082598A1, “Melafenoxate, 2-(1-adamantylamino)ethyl 2-(4-chlorophenoxy)acetate and derivatives thereof for treating circadian rhythm sleep disorders with neurodegenerative diseases such as Alzheimer's disease” (NLS Pharmaceutics AG, priority 2021, published 2025).

In one assay the target is T1, MT1 (MLT1a) (h) (Homo sapiens, UniProt P48039).
T1 construct: CEREP (Eurofins, France)
The assay is described as follows: Radioligand binding, MT1 (MLT1a) (h). The settings on record: 10^−5 M; agonist radioligand; % inhibition of control specific binding. As to the method: (§1) Melafenoxate was tested at 10^−5 M, calculated as a % inhibition of control specific binding of a radioactively labeled ligand specific for each target.
(§2) This binding profile panel was broadly defined with roughly an equal number of selective, central and peripheral therapeutically relevant targets, including native animal tissues, radioligands and specific enzymes involved in cell cycle regulation in accordance with Eurofins Standard Operating Procedure.
(§3) For radioligand binding experiments, the half maximal inhibitory concentration (IC50) and the half maximal effective concentration (EC50) values were determined (via computer software) by nonlinear regression analysis of the competition curves using Hill equation curve fitting. The inhibition constants (Ki) were calculated using the Cheng-Prusoff equation (Ki=IC50/(1+(L/KD)), where L is the concentration of radioligand in the assay, and KD is the affinity of the radioligand for the receptor.^49
(§4) The results are expressed as a % control specific binding ([measured specific binding/control specific binding]×100) and as a % inhibition of control specific binding (100−[(measured specific binding/control specific binding)×100]) obtained in the presence of the test compounds. […]

For a further assay, the target named is T2, 5-HT7 (h) (Homo sapiens, UniProt P34969).
T2 construct: CEREP (Eurofins, France)
The assay is described as follows: Radioligand binding, 5-HT7 (h). Conditions: 10^−5 M; agonist radioligand. As to the method: as §1, §2, §3, §4

Another assay concerns the target RXFP4 (h) (Homo sapiens, UniProt Q8TDU9). In words: RXFP4 assay (Eurofins/LeadHunter, cAMP Hunter GPCR Biosensor). Type of assay: cell-based. On the procedure:
Melafenoxate is found to weakly bind with RXFP3 and RXFP4 receptors (Study FR095-0024749-Q Eurofins/leadHunter Jun. 25, 2021; unpublished data).
In these assays' compounds were tested in agonist and antagonist mode with the GPCR Biosensor Assays and match to this design:
• 1. CAMP Hunter cell lines were expanded from freezer stocks according to standard procedures. • 2. Cells were seeded in a total volume of 20 μL into white walled, 384-well microplates and incubated at 37° C. for the appropriate time prior to testing. • 3. cAMP modulation was determined using the DiscoverX HitHunter CAMP XS+assay.
• 1. For agonist determination, cells were incubated with sample to induce response. • 2. Media was aspirated from cells and replaced with 15 μL 2:1 HBSS/10 mM Hepes: CAMP XS+ Ab reagent. • 3. […]
• 1. […] Microplates were read following signal generation with a PerkinElmer Envision™ instrument for chemiluminescent signal detection.
• 1. Compound activity was analyzed using CBIS data analysis suite (ChemInnovation, CA). • 2. For Gs agonist mode assays, percentage activity is calculated using the following formula:
% Activity=100%×(mean RLU of test sample−mean RLU of vehicle control)/(mean RLU of MAX control−mean RLU of vehicle control). • 3. For Gs positive allosteric mode assays, percentage modulation is calculated using the following formula: http://www.eurofinsdiscoveryservices.com Confidential Jun. […]

Chain of RXFP4 (h) (Q8TDU9 whole entry): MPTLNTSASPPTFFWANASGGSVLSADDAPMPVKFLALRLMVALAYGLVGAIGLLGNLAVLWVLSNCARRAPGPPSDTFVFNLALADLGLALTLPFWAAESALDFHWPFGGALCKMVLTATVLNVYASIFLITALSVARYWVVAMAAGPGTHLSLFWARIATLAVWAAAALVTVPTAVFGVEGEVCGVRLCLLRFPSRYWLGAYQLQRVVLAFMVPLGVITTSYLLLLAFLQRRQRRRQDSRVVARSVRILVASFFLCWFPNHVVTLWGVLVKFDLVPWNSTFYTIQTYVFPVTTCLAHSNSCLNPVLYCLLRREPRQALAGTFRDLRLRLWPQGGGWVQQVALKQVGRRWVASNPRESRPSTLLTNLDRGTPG
T2 sequence (P34969 whole entry): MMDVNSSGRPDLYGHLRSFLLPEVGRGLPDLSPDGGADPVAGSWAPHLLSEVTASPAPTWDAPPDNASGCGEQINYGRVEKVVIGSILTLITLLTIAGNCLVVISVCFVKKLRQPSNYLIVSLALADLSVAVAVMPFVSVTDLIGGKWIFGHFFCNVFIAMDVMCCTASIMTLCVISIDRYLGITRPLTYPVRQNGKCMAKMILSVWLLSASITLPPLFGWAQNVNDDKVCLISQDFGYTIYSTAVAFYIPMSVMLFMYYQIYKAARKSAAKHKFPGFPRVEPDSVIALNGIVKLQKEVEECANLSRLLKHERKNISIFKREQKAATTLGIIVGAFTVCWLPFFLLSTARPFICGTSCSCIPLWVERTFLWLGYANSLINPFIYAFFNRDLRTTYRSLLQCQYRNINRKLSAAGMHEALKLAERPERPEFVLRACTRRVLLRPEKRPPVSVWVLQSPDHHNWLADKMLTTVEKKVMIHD
T1 sequence (P48039 whole entry): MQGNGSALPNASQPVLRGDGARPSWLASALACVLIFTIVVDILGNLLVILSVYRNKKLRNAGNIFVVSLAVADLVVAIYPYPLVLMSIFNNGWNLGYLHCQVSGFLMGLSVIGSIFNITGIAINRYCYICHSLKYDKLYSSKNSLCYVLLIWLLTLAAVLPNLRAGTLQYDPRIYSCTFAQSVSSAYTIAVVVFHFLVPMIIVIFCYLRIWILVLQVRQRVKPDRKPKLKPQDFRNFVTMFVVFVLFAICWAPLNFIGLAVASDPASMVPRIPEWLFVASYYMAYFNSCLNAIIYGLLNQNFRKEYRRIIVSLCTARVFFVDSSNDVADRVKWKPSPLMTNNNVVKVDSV

On to `O=C(COc1ccc(Cl)cc1)OCCNC12CC3CC(CC(C3)C1)C2` [Melafenoxate, 2-(1-adamantylamino)ethyl 2-(4-chlorophenoxy)acetate], for which the inhibition (as a rule, the change of the read-out against control, counted positive when it falls) at 10 µM was found to be 75.2% at MT1 (MLT1a) (h) and 12.8% at 5-HT7 (h). Also, the “binding with RXFP4 receptor (in words)” value at RXFP4 (h) is “weakly bind”. Moreover, the % Inhibition (as a rule, the drop in the measured response relative to a control, in per cent) at 5*10^−5 M on RXFP4 (h) (5*10^−5 M) amounted to 19.5%.
